According to patent US20090252834A1, “Compositions comprising glucose anti-metabolites” (priority 2004, published 2009):
Blank lines part the entries; values can stand above or below the compound they belong to.

Experiments:
[1] = in contrast with 2-deoxy-D-glucose; cited from earlier work
[2] = test system: rats; conditions: cited from earlier work
[3] = test system: isolated rat hepatocytes; conditions: cited from earlier work
[4] = injected into a rat; cited from earlier work
[5] = test system: rats; conditions: by injection, in rats; cited from earlier work
[6] = test system: rodents; conditions: long-term; cited from earlier work
[7] = high doses; cited from earlier work
[8] = test system: mice; assay: Mice fed a diet containing mannoheptulose; assay type: in vivo
From the text: (§1) Both of these endpoints are closely related to altered glucose and/or carbohydrate metabolism, similar to that elicited by dietary caloric restriction.

[9] = test system: fruit flies and/or nematodes; assay: Lifespan of fruit flies and/or nematodes fed mannoheptulose; assay type: in vivo
From the text: as §1

[10] = Pharmacokinetics of mannoheptulose, once daily in a nutritionally-balanced composition, adult Labrador Retrievers; assay type: in vivo, Labrador Retriever dogs
Procedure: The pharmacokinetics of mannoheptulose can be determined in six adult, male Labrador Retriever dogs fed a nutritionally-balanced composition providing mannoheptulose at levels of 0, 1 or 2 mg/kg of body weight of the dog. Mannoheptulose is provided as an enriched source of avocado extract in the 1 and 2 mg/kg diets. The mean age of the dogs is 4.2 years and the age ranges from 3.3 to 6.1 years. The average body weight of all dogs is 33 kg and the body weight ranges from 28 to 36 kg. Dogs are adapted for 14 days to a nutritionally-balanced control composition (Eukanuba Senior Maintenance Formula) containing no mannoheptulose, avocado extract or avocado meal (0 mg/kg mannoheptulose). The two compositions containing mannoheptulose are the nutritionally-balanced control composition formulated with avocado extract to provide a mannoheptulose dose of 1 or 2 mg/kg of body weight when fed to a dog. The amount of composition offered to the dogs is based on feeding guidelines for the control composition and the target weight range and body condition of the dogs. After 14 days, dogs are fed one of the three compositions for 9 days. On day 9, the dogs are fed their daily allotment of composition as a single meal at 0730. Dog 1 and dog 2 are fed the control composition containing 0 mg/kg mannoheptulose, dog 3 and dog 4 are fed the composition containing 1 mg/kg mannoheptulose, and dog 5 and dog 6 are fed the composition containing 2 mg/kg mannoheptulose. Pharmacokinetics of mannoheptulose following once daily administration of mannoheptulose in a nutritionally-balanced composition is determined by collecting serial blood samples (3 mL) from each dog on day 9 using a Vacutainer blood collection system and jugular venipuncture. Blood samples are collected at −30, 0, 30, 60, 90, 120, 240, 360, 480, 600, 720 and 1,440 minutes relative to each dog receiving their entire daily allotment of composition as a single meal. Plasma mannoheptulose concentrations are measured using high-performance liquid chromatography tandem mass spectrometry as described herein below.
A one-compartment model is used to calculate mannoheptulose pharmacokinetics based on plasma mannoheptulose levels following once daily oral administration of mannoheptulose in a nutritionally-balanced composition (PV(t)). The model is: PV(t)=dose/(a·BW)e^−kt where: a mannoheptulose pool size (dose/(enrichment at to)), BW=body weight, k=rate constant of elimination (In Et−1n E0)/−t, and t=time. Area under each plasma mannoheptulose curve is determined using a one-way, repeated measures analysis of variance (GraphPad Prism version 4.00 for Windows).
High performance liquid chromatography tandem mass spectrometry (HPLC/MS/MS) is utilized to determine the amount of mannoheptulose present in the plasma of adult dogs. D-mannoheptulose and its chemical analog internal standard (D7-glucose) are isolated from dog plasma by a protein precipitation procedure (described herein below) using a 96-well format. […] Detection and quantitation is by mass spectrometry (MS) operating under multiple reaction monitoring MS/MS conditions. Concentrations of D-mannoheptulose in dog plasma can be quantitated from approximately 20 to 5000 ng/mL. […] Specimen concentrations are determined by back-calculation using a weighted (1/x^2) linear regression of a calibration curve generated from prepared D-mannoheptulose calibration standards.

[11] = Pharmacokinetics of mannoheptulose, twice daily in a nutritionally-balanced composition, older Labrador Retrievers; assay type: in vivo, Labrador Retriever dogs; conditions: 2 mg/kg; for half-life: female, Labrador Retriever, dog, plasma, oral
Procedure: The pharmacokinetics of mannoheptulose can be determined in ten adult, female Labrador Retriever dogs fed a nutritionally-balanced composition providing mannoheptulose at levels of 0 or 2 mg/kg of body weight of the dog. Mannoheptulose is provided as avocado extract in the 2 mg/kg diet. The mean age of the dogs is 7.1 years and the age ranges from 5.3 to 8.4 years. Dogs are age-matched across the two composition groups. The average body weight of all dogs is 29 kg and ranges from 25 to 35 kg. The 0 mg/kg composition is fed as a nutritionally-balanced control composition (Eukanuba Senior Maintenance Formula) and it contains no mannoheptulose, avocado extract or avocado meal. The 2 mg/kg composition is the nutritionally-balanced control composition formulated to contain avocado extract to provide mannoheptulose at a dose of 2 mg/kg of body weight of the dog. The amount of composition offered to the dogs is based on feeding guidelines for the control composition and the target weight range and body condition of the dogs. Dogs are fed one-half their daily allotment of composition at 0730 and the remaining half at 1330. Dogs 1, 2, 3, 4 and 5 are fed the composition containing 2 mg/kg mannoheptulose and dogs 6, 7, 8, 9 and 10 are fed the composition containing 0 mg/kg mannoheptulose. Pharmacokinetics of mannoheptulose following twice daily administration of mannoheptulose in a nutritionally-balanced composition is determined by collecting serial blood samples (3 mL) from each dog using a Vacutainer blood collection system and jugular venipuncture. […] Plasma mannoheptulose concentrations are measured using high-performance liquid chromatography tandem mass spectrometry as described herein below.
A one-compartment model is used to calculate mannoheptulose pharmacokinetics based on plasma mannoheptulose levels following twice daily oral administration of mannoheptulose in a nutritionally-balanced composition (PV(t)). The model is: PV(t)=dose/(a·BW)e^−kt where: a=mannoheptulose pool size (dose/(enrichment at to)), BW=body weight, k=rate constant of elimination (In Et−1n E0)/−t, and t=time.
High performance liquid chromatography tandem mass spectrometry (HPLC/MS/MS) is utilized to determine the amount of mannoheptulose present in the plasma of adult dogs. D-mannoheptulose and its chemical analog internal standard (D7-glucose) are isolated from dog plasma by a protein precipitation procedure (described herein below) using a 96-well format. The analyte and internal standard are subjected to reverse-phase high performance liquid chromatographic (HPLC) analysis on a polymeric amino column (2.1×150 mm, 5-μm particles). Detection and quantitation is by mass spectrometry (MS) operating under multiple reaction monitoring MS/MS conditions. Concentrations of D-mannoheptulose in dog plasma can be quantitated from approximately 20 to 5000 ng/mL. The assay requires a 0.1 mL aliquot of dog plasma harvested from a Na2EDTA anti-coagulant blood collection tube. Specimen concentrations are determined by back-calculation using a weighted (1/x^2) linear regression of a calibration curve generated from prepared D-mannoheptulose calibration standards.

[12] = test system: older Labrador Retrievers; assay: ADL-Jump (jumping over hurdles) of older dogs; assay type: in vivo, Labrador Retriever dogs; conditions: 2 mg/kg, across all four quarters
Procedure: (§2) A total of 39 older Labrador Retrievers are fed a nutritionally-balanced composition providing mannoheptulose at levels of 0 or 2 mg/kg of body weight of the dog. Average age of the dogs (12 neutered males, 27 spayed females) at the start of a 4-year study is 6.7 years with a range of 5.1 to 8.2 years of age for the youngest and oldest dog within the cohort, respectively. The 0 mg/kg composition is fed as a nutritionally-balanced control composition (Eukanuba Senior Maintenance Formula) and it contains no mannoheptulose, avocado extract or avocado meal. The 2 mg/kg composition is the nutritionally-balanced control composition formulated with avocado extract to provide mannoheptulose at a dose of 2 mg/kg body weight of the dog. The nutritionally-balanced composition containing 0 mg/kg mannoheptulose is referred to as Diet 1 within this Example. The nutritionally-balanced composition containing 2 mg/kg mannoheptulose is referred to as Diet 2 within this Example. […]
(§3) Shoulder height of each individual dog is measured using a tape measure and recorded. […]
(§4) The ADL-Table activity requires the dog to jump on to and down from the platform of four tables of graduated heights, starting with the lowest table height first. […] For both activities, dogs are scored for the number of attempts at each graduated height and the successful completion of each height. […]

[13] = test system: older Labrador Retrievers; assay: ADL-Table (jumping onto table platforms) of older dogs; assay type: in vivo, Labrador Retriever dogs; conditions: 2 mg/kg, across all four quarters
Procedure: as §2, §3, §4

[14] = cited from earlier work
[15] = rats, cited from earlier work
[16] = twice daily, after the afternoon meal
[17] = twice daily, after the morning meal

SMILES: CO[C@@H]([C@H](O)[C@H](O)CO)[C@@H](O)C=O [3-O-methylglucose]
metabolism of the glucose analog [1]: not metabolized
responses to administration compared with 2-deoxyglucose [2]: about seven times weaker

SMILES: OC[C@H]1O[C@H](CO)[C@@H](O)[C@@H]1O [2,5-Anhydro-D-mannitol, 2,5-anhydro-D-mannitol]
glucose formation and utilization [3]: interfere in glucose formation and utilization

SMILES: O=C[C@H](O)[C@@H](O)[C@H](O)[C@H](S)CO [5-Thioglucose, 5-thio-D-glucose]
5-thioglucose excreted unchanged in urine [4]: 97%
LD50 [5]: 14000 mg/kg

SMILES: O=CC[C@@H](O)[C@H](O)[C@H](O)CO [2-deoxy-D-glucose]
metabolic hallmarks of caloric restriction (reduced body temperature, weight loss, lower fasting insulin levels) [6]: can mimic some of the major metabolic hallmarks of caloric restriction
side effects and toxicity [7]: significant untoward side effects and toxicity have been observed

response of plasma mannoheptulose levels to dietary mannoheptulose levels ([10]; 0, 1, 2 mg/kg): dose-dependent manner
time for plasma mannoheptulose to return to non-detectable levels ([10]; after consumption of the single daily meal): ≤ 24 h
half-life ([10]; male, Labrador Retriever, dog, plasma, once daily oral, 2 mg/kg, mathematical modeling): 6.25 h
turnover time ([10]; once daily oral, 2 mg/kg, mathematical modeling): 9.0 h
order of plasma kinetics ([10]; once daily oral, 1 or 2 mg/kg): first order kinetics
half-life [11, 16]: 5.63 h
half-life [11, 17]: 5.42 h
order of plasma kinetics ([11]; twice daily oral): first order kinetics
return of plasma mannoheptulose to undetectable levels ([11]; twice daily): by the following morning
turnover time [11, 16]: 3.90 h
turnover time [11, 17]: 7.8 h
time to second peak in plasma mannoheptulose after afternoon meal ([11]; twice daily, afternoon meal): 4 h
time to peak plasma mannoheptulose levels after initial feeding ([11]; twice daily, morning meal): 4 h
SMILES: O=C(CO)[C@@H](O)[C@@H](O)[C@H](O)[C@H](O)CO [mannoheptulose]
body weight [8]: slightly reduced body weight
plasma insulin levels [8]: reduced plasma insulin levels
lifespan extension [9]: ~50%
percentage of older dogs successfully jumping heights vs composition devoid of mannoheptulose [12]: a greater percentage of older dogs are able to successfully jump all heights
percentage of older dogs successfully jumping onto platforms vs composition devoid of mannoheptulose [13]: a greater percentage of older dogs can successfully jump onto platforms that are 70, 80, 90 and 100% of their shoulder height
mannoheptulose ingested appearing in urine ([14]; after oral administration): About 5%
safety of oral administration ([14]; humans, doses of 10 grams, orally): safely administered
injected mannoheptulose remained in the body ([15]; a day after the injection): 5%
injected mannoheptulose excreted unchanged ([15]; injection): 66%
injected mannoheptulose metabolized ([15]; injection): 29%
